Earlier results as cited in PMC7180456, “Multitarget Anticancer Agents Based on Histone Deacetylase and Protein Kinase CK2 Inhibitors” (Molecules, 2020).

Assays:
HDAC1 = test system: HDAC1; set-up: method as in doi:10.1039/C6RA09717K; conditions: Figure 3; read-out: HDAC1 IC50 of previously described dual inhibitors; cited from earlier work
CK2 = conditions: Figure 3; read-out: CK2 IC50 of previously described dual inhibitors; cited from earlier work
two mammalian cell lines = test system: two mammalian cell lines; set-up: method as in doi:10.1039/C6RA09717K; conditions: cited from earlier work
HDAC-6 = conditions: Figure 4; read-out: Ki, HDAC-6 inhibitor; cited from earlier work
HDAC = test system: HDAC; set-up: method as in PMID 29733427; conditions: Figure 2; read-out: IC50 of FDA-approved HDAC inhibitors; cited from earlier work
HL-60/adr line = test system: HL-60/adr line; set-up: method as in PMID 17904109; conditions: cited from earlier work
HL-60/vinc line = test system: HL-60/vinc line; set-up: method as in PMID 17904109; conditions: cited from earlier work

## O=C(CCn1cc(CCn2nnc3c(Br)c(Br)c(Br)c(Br)c32)nn1)NO [Compound 1]
HDAC1
  IC50: 5 µM
CK2
  IC50: 5.4 µM

## O=C(CCn1cc(CCn2nc3c(Br)c(Br)c(Br)c(Br)c3n2)nn1)NO [Compound 2]
HDAC1
  IC50: 2.2 µM
CK2
  IC50: 50 µM
Two mammalian cell lines
  cytotoxic activity LC50: low micromolar

## CN1C(=O)C2Cc3c(c4ccccc4n3Cc3ccc(C(=O)NO)cc3)C(C2)C1=O (stereo not shown) [Marbostat-100]
HDAC-6
  Ki: 0.7 nM

## Cc1[nH]c2ccccc2c1CCNCc1ccc(/C=C/C(=O)NO)cc1 [Panobinostat]
HDAC
  IC50: 5 to 20 nM

## C/C=C1\NC(=O)[C@H]2CSSCC/C=C/[C@H](CC(=O)N[C@H](C(C)C)C(=O)N2)OC(=O)[C@H](C(C)C)NC1=O [Romidepsin]
HDAC
  IC50: 36 nM

## COc1cccc2c1C(=O)c1c(O)c3c(c(O)c1C2=O)C[C@@](O)(C(=O)CO)C[C@@H]3O[C@H]1C[C@H](N)[C@H](O)[C@H](C)O1 [doxorubicin]
HL-60/adr line
  resistance of the MDR cell model to the drug: 80 fold
HL-60/vinc line
  resistance of the MDR cell model to the drug: 140 fold
